Assays:
B-RAF G466V = target: T1, B-RAF G466V (Homo sapiens, UniProt P15056, G466V); test: Target protein degradation, assay D: T-Rex 293 cells, HA-BRAF_G466V, 384 well format; format: cell-based; conditions: T-Rex 293 HA-BRAF_G466V cells, 24 hours, Examples 83-269; for DC50: Assay D; for Dmax: T-REx-293, Assay D
T1 construct: expressed in transfected cells; host or cells: T-Rex 293 cells (Invitrogen #R71007)
Procedure, shortened: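 Degradation measured by high-content imaging of anti-HA immunofluorescence in fixed T-Rex 293 cells carrying inducible HA-BRAF G466V (1 ng/mL doxycycline), after 24 h PROTAC exposure at 37 °C over 300 nM–5 pM (1:3, 11 points, 0.5% DMSO). Outputs DC50 and Dmax as % of control; nuclei counts against DMSO wells gauge toxicity.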

B-RAF V600E = target: T2, B-RAF V600E (Homo sapiens, UniProt P15056, V600E); test: Target protein degradation, assay C: T-Rex 293 cells, HA-BRAF_V600E, 384 well format; format: cell-based; conditions: T-Rex 293 HA-BRAF_V600E cells, 24 hours, Examples 83-269; for DC50: Assay C; for Dmax: T-REx-293, Assay C
T2 construct: expressed in transfected cells; host or cells: T-Rex 293 cells (Invitrogen #R71007)
Procedure, shortened: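 After 24 h exposure to an 11-point 1:3 series (300 nM–5 pM, 0.5% DMSO), fixed T-Rex 293 cells carrying HA-BRAF V600E (induced with 1 ng/mL doxycycline) were stained anti-HA and imaged. DC50 and Dmax were derived from BRAF intensity relative to control, and cytotoxicity from nuclear counts.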

T1 sequence (P15056 whole entry G466V): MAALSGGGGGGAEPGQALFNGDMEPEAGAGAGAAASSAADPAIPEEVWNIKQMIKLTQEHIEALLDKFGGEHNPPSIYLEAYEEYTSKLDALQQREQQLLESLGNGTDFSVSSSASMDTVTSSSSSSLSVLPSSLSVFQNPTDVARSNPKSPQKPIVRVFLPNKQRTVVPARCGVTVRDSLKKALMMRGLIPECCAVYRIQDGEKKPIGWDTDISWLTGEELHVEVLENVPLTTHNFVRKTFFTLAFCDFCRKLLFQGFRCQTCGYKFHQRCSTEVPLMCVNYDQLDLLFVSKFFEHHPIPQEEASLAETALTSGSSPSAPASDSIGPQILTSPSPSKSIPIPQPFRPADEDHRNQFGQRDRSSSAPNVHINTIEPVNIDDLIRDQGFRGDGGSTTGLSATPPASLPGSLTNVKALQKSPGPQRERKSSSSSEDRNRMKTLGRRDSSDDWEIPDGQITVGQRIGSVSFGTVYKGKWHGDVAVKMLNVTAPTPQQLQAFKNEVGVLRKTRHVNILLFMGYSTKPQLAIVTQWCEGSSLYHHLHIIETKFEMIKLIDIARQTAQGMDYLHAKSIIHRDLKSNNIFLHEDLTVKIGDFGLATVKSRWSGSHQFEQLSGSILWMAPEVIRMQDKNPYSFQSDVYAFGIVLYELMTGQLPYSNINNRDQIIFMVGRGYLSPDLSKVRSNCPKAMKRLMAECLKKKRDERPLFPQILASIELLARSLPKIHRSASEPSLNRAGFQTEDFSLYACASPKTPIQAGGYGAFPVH
T2 sequence (P15056 whole entry V600E): as the sequence (P15056 whole entry G466V) above, with V466G, V600E counted along it

DC50 (B-RAF G466V) [nM]	Dmax (B-RAF G466V) [%]	DC50 (B-RAF V600E) [nM]	Dmax (B-RAF V600E) [%]	Compound
1 to 10	≤ 35	5 to 50	35 to 70	N#Cc1c(NS(=O)(=O)N2CC[C@@H](F)C2)ccc(F)c1Oc1ccc2ncn(-c3ccc(N4CCN(CC5CCN(c6ccc(C7CCC(=O)NC7=O)cn6)CC5)CC4)cc3)c(=O)c2c1 (stereo partly drawn) [Example 91, (3R)-N-{2-cyano-3-[(3-(4-[4-({1-[5-(2,6-dioxopiperidin-3-yl)pyridin-2-yl]piperidin-4-yl}methyl)piperazin-1-yl]phenyl}-4-oxo-3,4-dihydroquinazolin-6-yl)oxy]-4-fluorophenyl}-3-fluoropyrrolidine-1-sulfonamide]
10 to 30	≤ 35	50 to 500	≤ 35	N#Cc1c(NS(=O)(=O)N2CC[C@@H](F)C2)ccc(F)c1Oc1ccc2ncn(-c3ccc(N4CCN(CC5CCN(c6ccc7c(c6)CN(C6CCC(=O)NC6=O)C7=O)CC5)CC4)nn3)c(=O)c2c1 (stereo partly drawn) [Example 92, (3R)-N-{2-cyano-3-[(3-{6-[4-({1-[2-(2,6-dioxopiperidin-3-yl)-1-oxo-2,3-dihydro-1H-isoindol-5-yl]piperidin-4-yl}methyl)piperazin-1-yl]pyridazin-3-yl}-4-oxo-3,4-dihydroquinazolin-6-yl)oxy]-4-fluorophenyl}-3-fluoropyrrolidine-1-sulfonamide]
1 to 10	≤ 35	50 to 500	35 to 70	N#Cc1c(NS(=O)(=O)N2CC[C@@H](F)C2)ccc(F)c1Oc1ccc2ncn(-c3cccc(N4CCCC(CN5CCN(c6ccc7c(c6)CN([C@H]6CCC(=O)NC6=O)C7=O)CC5)C4)c3)c(=O)c2c1 (stereo partly drawn) [Example 93, (3R)-N-(2-cyano-3-{[3-(3-{3-[(4-{2-[(3S)-2,6-dioxopiperidin-3-yl]-1-oxo-2,3-dihydro-1H-isoindol-5-yl}piperazin-1-yl)methyl]piperidin-1-yl}phenyl)-4-oxo-3,4-dihydroquinazolin-6-yl]oxy}-4-fluorophenyl)-3-fluoropyrrolidine-1-sulfonamide]
1 to 10	≤ 35	5 to 50	35 to 70	Cc1cc(N2CCC(CN3CCN(c4ccc(-n5cnc6ccc(Oc7c(F)ccc(NS(=O)(=O)N8CC[C@@H](F)C8)c7C#N)cc6c5=O)cc4)CC3)CC2)c(F)c2c1C(=O)N(C1CCC(=O)NC1=O)C2 (stereo partly drawn) [Example 94, (3R)-N-{2-cyano-3-[(3-(4-[4-({1-[2-(2,6-dioxopiperidin-3-yl)-4-fluoro-7-methyl-1-oxo-2,3-dihydro-1H-isoindol-5-yl]piperidin-4-yl}methyl)piperazin-1-yl]phenyl}-4-oxo-3,4-dihydroquinazolin-6-yl)oxy]-4-fluorophenyl}-3-fluoropyrrolidine-1-sulfonamide]
1 to 10	≤ 35	5 to 50	35 to 70	N#Cc1c(NS(=O)(=O)N2CC[C@@H](F)C2)ccc(F)c1Oc1ccc2ncn(-c3ccc(N4CCN(CC5CCN(c6ccc(C7CCC(=O)NC7=O)nc6)CC5)CC4)cc3)c(=O)c2c1 (stereo partly drawn) [Example 95, (3R)-N-{2-cyano-3-[(3-{4-[4-({1-[6-(2,6-dioxopiperidin-3-yl)pyridin-3-yl]piperidin-4-yl}methyl)piperazin-1-yl]phenyl}-4-oxo-3,4-dihydroquinazolin-6-yl)oxy]-4-fluorophenyl}-3-fluoropyrrolidine-1-sulfonamide]
1 to 10	≤ 35	5 to 50	35 to 70	N#Cc1c(NS(=O)(=O)N2CC[C@@H](F)C2)ccc(F)c1Oc1ccc2ncn(-c3ccc(N4CCN(CC5CCN(c6ccc(N7CCC(=O)NC7=O)cc6)CC5)CC4)cc3)c(=O)c2c1 [Example 96, (3R)-N-{2-cyano-3-[(3-(4-[4-({1-[4-(2,4-dioxo-1,3-diazinan-1-yl)phenyl]piperidin-4-yl}methyl)piperazin-1-yl]phenyl}-4-oxo-3,4-dihydroquinazolin-6-yl)oxy]-4-fluorophenyl}-3-fluoropyrrolidine-1-sulfonamide]
1 to 10	35 to 70	50 to 500	35 to 70	N#Cc1c(NS(=O)(=O)N2CC[C@@H](F)C2)ccc(F)c1Oc1ccc2ncn(-c3ccn(C4CC5(C4)CN(CC4CCN(c6ccc7c(c6)CN(C6CCC(=O)NC6=O)C7=O)CC4)C5)n3)c(=O)c2c1 (stereo partly drawn) [Example 97, (3R)-N-{2-cyano-3-[(3-{1-[2-({1-[2-(2,6-dioxopiperidin-3-yl)-1-oxo-2,3-dihydro-1H-isoindol-5-yl]piperidin-4-yl}methyl)-2-azaspiro[3.3]heptan-6-yl]-1H-pyrazol-3-yl}-4-oxo-3,4-dihydroquinazolin-6-yl)oxy]-4-fluorophenyl}-3-fluoropyrrolidine-1-sulfonamide]
1 to 10	35 to 70	50 to 500	35 to 70	Cn1c(=O)n(C2CCC(=O)NC2=O)c2cccc(N3CCC(CN4CCN(c5ccc(-n6cnc7ccc(Oc8c(F)ccc(NS(=O)(=O)N9CC[C@@H](F)C9)c8C#N)cc7c6=O)cc5)CC4)CC3)c21 (stereo partly drawn) [Example 98, (3R)-N-{2-cyano-3-[(3-{4-[4-({1-[1-(2,6-dioxopiperidin-3-yl)-3-methyl-2-oxo-2,3-dihydro-1H-1,3-benzodiazol-4-yl]piperidin-4-yl}methyl)piperazin-1-yl]phenyl}-4-oxo-3,4-dihydroquinazolin-6-yl)oxy]-4-fluorophenyl}-3-fluoropyrrolidine-1-sulfonamide]
1 to 10	35 to 70	50 to 500	35 to 70	N#Cc1c(NS(=O)(=O)N2CC[C@@H](F)C2)ccc(F)c1Oc1ccc2ncn(-c3cnc(C4(N5CCN(CC6CN(c7ccc8c(c7)CN(C7CCC(=O)NC7=O)C8=O)C6)CC5)CC4)nc3)c(=O)c2c1 (stereo partly drawn) [Example 99, (3R)-N-(2-cyano-3-{[3-(2-{1-[4-({1-[2-(2,6-dioxopiperidin-3-yl)-1-oxo-2,3-dihydro-1H-isoindol-5-yl]azetidin-3-yl}methyl)piperazin-1-yl]cyclopropyl}pyrimidin-5-yl)-4-oxo-3,4-dihydroquinazolin-6-yl]oxy}-4-fluorophenyl)-3-fluoropyrrolidine-1-sulfonamide]
1 to 10	35 to 70	50 to 500	35 to 70	N#Cc1c(NS(=O)(=O)N2CC[C@@H](F)C2)ccc(F)c1Oc1ccc2ncn(-c3cnc(C4(N5CCN(CC6CCN(c7ccc8c(c7)CN(C7CCC(=O)NC7=O)C8=O)CC6)CC5)CC4)nc3)c(=O)c2c1 (stereo partly drawn) [Example 100, (3R)-N-(2-cyano-3-{[3-(2-{1-[4-({1-[2-(2,6-dioxopiperidin-3-yl)-1-oxo-2,3-dihydro-1H-isoindol-5-yl]piperidin-4-yl}methyl)piperazin-1-yl]cyclopropyl}pyrimidin-5-yl)-4-oxo-3,4-dihydroquinazolin-6-yl]oxy}-4-fluorophenyl)-3-fluoropyrrolidine-1-sulfonamide]
1 to 10	35 to 70	50 to 500	35 to 70	N#Cc1c(NS(=O)(=O)N2CC[C@@H](F)C2)ccc(F)c1Oc1ccc2ncn(-c3ccc(N4CCC(CN5CC(c6ccc7c(c6)CN(C6CCC(=O)NC6=O)C7=O)C5)CC4)cc3)c(=O)c2c1 (stereo partly drawn) [Example 101, (3R)-N-{2-cyano-3-[(3-{4-[4-({3-[2-(2,6-dioxopiperidin-3-yl)-1-oxo-2,3-dihydro-1H-isoindol-5-yl]azetidin-1-yl}methyl)piperidin-1-yl]phenyl}-4-oxo-3,4-dihydroquinazolin-6-yl)oxy]-4-fluorophenyl}-3-fluoropyrrolidine-1-sulfonamide]

From patent US11957759B1, “Rapidly accelerated fibrosarcoma (RAF) degrading compounds and associated methods of use” (Arvinas Operations, Inc., priority 2022, dated 2024)
